# Source: PubChem BioAssay AID248 (DTP/NCI, 2004)
# Several values for one entry are separate records, joined by “and”; a condition that tells them apart may be missing. Identical values can stand only once. Toxic doses and inconclusive results are not listed.
# System: L1210 leukemia ip in BDF1 mice, survival T/C
# Experiment: NCI In Vivo Anticancer Drug Screen. Data for tumor model L1210 Leukemia (intraperitoneal) in B6D2F1 (BDF1) mice
# Details: endpoint: mean survival time, higher = longer survival
# Method in brief: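 Antitumor effect is assessed in tumor-bearing animals. Survival in the compound arm is compared with a vehicle-dosed control arm and expressed as their quotient.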
# [1] = dose: 50.0 mg/kg/injection, schedule: Q01DX001 (ip), vehicle: carboxymethylcellulose (CMC)
# [2] = dose: 100.0 mg/kg/injection, schedule: Q01DX001 (ip), vehicle: carboxymethylcellulose (CMC)
# [3] = dose: 200.0 mg/kg/injection, schedule: Q01DX001 (ip), vehicle: carboxymethylcellulose (CMC)
# [4] = dose: 400.0 mg/kg/injection, schedule: Q01DX001 (ip), vehicle: carboxymethylcellulose (CMC)
# [5] = dose: 50.0 mg/kg/injection, schedule: Q01DX001 (ip), vehicle: saline
# [6] = dose: 100.0 mg/kg/injection, schedule: Q01DX001 (ip), vehicle: saline
# [7] = dose: 200.0 mg/kg/injection, schedule: Q01DX001 (ip), vehicle: saline
# [8] = dose: 400.0 mg/kg/injection, schedule: Q01DX001 (ip), vehicle: saline
smiles,measurement,setting,value
COc1cc(C=Nc2cccc(Br)c2)ccc1N(CCCl)CCCl,T/C,"dose: 1.4 mg/kg/injection, schedule: Q01DX015 (ip), vehicle: carboxymethylcellulose (CMC)",107 % of control
same,T/C,"dose: 2.2 mg/kg/injection, schedule: Q01DX015 (ip), vehicle: carboxymethylcellulose (CMC)",111 % of control
same,T/C,"dose: 3.3 mg/kg/injection, schedule: Q01DX009 (ip), vehicle: saline",101 % of control
same,T/C,"dose: 3.3 mg/kg/injection, schedule: Q01DX015 (ip), vehicle: carboxymethylcellulose (CMC)",113 % of control
same,T/C,"dose: 5.0 mg/kg/injection, schedule: Q01DX009 (ip), vehicle: saline",116 % of control
same,T/C,"dose: 5.0 mg/kg/injection, schedule: Q01DX015 (ip), vehicle: carboxymethylcellulose (CMC)",119 % of control and 121 % of control
same,T/C,"dose: 9.0 mg/kg/injection, schedule: Q01DX009 (ip), vehicle: saline",109 % of control
same,T/C,"dose: 9.0 mg/kg/injection, schedule: Q01DX015 (ip), vehicle: carboxymethylcellulose (CMC)",159 % of control
same,T/C,"dose: 15.0 mg/kg/injection, schedule: Q01DX009 (ip), vehicle: saline",111 % of control
same,T/C,"dose: 15.0 mg/kg/injection, schedule: Q01DX015 (ip), vehicle: carboxymethylcellulose (CMC)",105 % of control
same,T/C,"dose: 22.0 mg/kg/injection, schedule: Q01DX001 (ip), vehicle: carboxymethylcellulose (CMC)",111 % of control
same,T/C,"dose: 25.0 mg/kg/injection, schedule: Q01DX015 (ip), vehicle: carboxymethylcellulose (CMC)",94 % of control and 97 % of control
same,T/C,"dose: 25.0 mg/kg/injection, schedule: Q04DX003 (ip), vehicle: saline",86 % of control
same,T/C,"dose: 33.0 mg/kg/injection, schedule: Q01DX001 (ip), vehicle: carboxymethylcellulose (CMC)",108 % of control
same,T/C,[1],113 % of control
same,T/C,"dose: 50.0 mg/kg/injection, schedule: Q04DX003 (ip), vehicle: saline",119 % of control
same,T/C,[2],117 % of control
same,T/C,[3],117 % of control
same,T/C,[4],123 % of control
c1ccc2c(c1)Sc1cnccc1N2CC1CO1 (stereo unspecified),T/C,"dose: 100.0 mg/kg/injection, schedule: Q04DX003 (ip), vehicle: saline",96 % of control
same,T/C,"dose: 200.0 mg/kg/injection, schedule: Q04DX003 (ip), vehicle: saline",92 % of control
same,T/C,"dose: 400.0 mg/kg/injection, schedule: Q04DX003 (ip), vehicle: saline",96 % of control
CCOC=N,T/C,[5],95 % of control
same,T/C,[6],95 % of control
same,T/C,[7],97 % of control
same,T/C,[8],101 % of control
CN(C(=O)Cc1ccccc1)c1ccccc1[N+](=O)[O-],T/C,[5],98 % of control
same,T/C,[6],104 % of control
same,T/C,[7],95 % of control
same,T/C,[8],101 % of control
O=C(OC(COC(c1ccccc1)(c1ccccc1)c1ccccc1)C(OC(=O)c1ccccc1)C(COC(c1ccccc1)(c1ccccc1)c1ccccc1)OC(=O)c1ccccc1)c1ccccc1 (stereo unspecified),T/C,"dose: 100.0 mg/kg/injection, schedule: Q04DX003 (ip), vehicle: Klucel (hydroxypropylcellulose) (HPC)",93 % of control
same,T/C,"dose: 200.0 mg/kg/injection, schedule: Q04DX003 (ip), vehicle: Klucel (hydroxypropylcellulose) (HPC)",93 % of control
same,T/C,"dose: 400.0 mg/kg/injection, schedule: Q04DX003 (ip), vehicle: Klucel (hydroxypropylcellulose) (HPC)",93 % of control
CN(CCN(C)C(=S)S)C(=S)S,T/C,"dose: 100.0 mg/kg/injection, schedule: Q01DX002 (ip), vehicle: saline",99 % of control
same,T/C,"dose: 200.0 mg/kg/injection, schedule: Q01DX002 (ip), vehicle: saline",99 % of control
same,T/C,"dose: 400.0 mg/kg/injection, schedule: Q01DX002 (ip), vehicle: saline",105 % of control
CCOC(=O)CC(=O)O,T/C,[6],91 % of control
same,T/C,[7],97 % of control
same,T/C,[8],91 % of control
Oc1ccc(Cl)cc1Cc1cc(Cl)cc(Cc2cc(Cl)ccc2O)c1O,T/C,"dose: 12.5 mg/kg/injection, schedule: Q01DX009 (ip), vehicle: saline with Tween-80",98 % of control
same,T/C,"dose: 25.0 mg/kg/injection, schedule: Q01DX009 (ip), vehicle: saline with Tween-80",102 % of control
same,T/C,"dose: 50.0 mg/kg/injection, schedule: Q01DX009 (ip), vehicle: saline with Tween-80",109 % of control
O=Cc1ccc(O)c(O)c1,T/C,"dose: 100.0 mg/kg/injection, schedule: Q01DX Z (ip), vehicle: other",101 % of control and 102 % of control
same,T/C,"dose: 150.0 mg/kg/injection, schedule: Q01DX Z (ip), vehicle: other",101 % of control and 107 % of control
same,T/C,"dose: 160.0 mg/kg/injection, schedule: Q01DX Z (ip), vehicle: carboxymethylcellulose (CMC)",115 % of control
same,T/C,"dose: 160.0 mg/kg/injection, schedule: Q01DX Z (ip), vehicle: other",122 % of control
same,T/C,"dose: 225.0 mg/kg/injection, schedule: Q01DX Z (ip), vehicle: other",98 % of control and 120 % of control
same,T/C,"dose: 240.0 mg/kg/injection, schedule: Q01DX Z (ip), vehicle: carboxymethylcellulose (CMC)",122 % of control
same,T/C,"dose: 340.0 mg/kg/injection, schedule: Q01DX Z (ip), vehicle: other",101 % of control and 107 % of control
same,T/C,"dose: 510.0 mg/kg/injection, schedule: Q01DX Z (ip), vehicle: other",113 % of control
same,T/C,"dose: 540.0 mg/kg/injection, schedule: Q01DX Z (ip), vehicle: other",93 % of control
same,T/C,"dose: 750.0 mg/kg/injection, schedule: Q01DX Z (ip), vehicle: other",113 % of control
CC1OC(OC2C(O)C(O)C(O)C(O)C2O)C(N)CC1N=C(N)C(=O)O (stereo unspecified),T/C,[2],90 % of control
same,T/C,[3],96 % of control
same,T/C,[4],100 % of control
CCN(CC)CCOc1ccc(C(C)(C)c2ccc(OCCN(CC)CC)cc2)cc1,T/C,"dose: 100.0 mg/kg/injection, schedule: Q04DX002 (ip), vehicle: saline",108 % of control
same,T/C,"dose: 200.0 mg/kg/injection, schedule: Q04DX002 (ip), vehicle: saline",108 % of control
Cc1cc(=O)[nH]c(N=Nc2c(O)[nH]c3ccccc23)n1,T/C,[2],98 % of control
same,T/C,[3],93 % of control
same,T/C,[4],88 % of control
O=C1c2cscc2C(=O)c2c(Cl)sc(Cl)c21,T/C,"dose: 100.0 mg/kg/injection, schedule: Q04DX003 (ip), vehicle: acetone",102 % of control
CCC(C)CNCCO (stereo unspecified),T/C,"dose: 50.0 mg/kg/injection, schedule: Q01DX009 (ip), vehicle: saline",92 % of control
same,T/C,"dose: 100.0 mg/kg/injection, schedule: Q01DX009 (ip), vehicle: saline",100 % of control
same,T/C,"dose: 200.0 mg/kg/injection, schedule: Q01DX009 (ip), vehicle: saline",103 % of control
C=C(NC(=O)CNC(=O)CN)C(=O)O,T/C,"dose: 100.0 mg/kg/injection, schedule: Q04DX002 (ip), vehicle: saline with Tween-80",105 % of control
same,T/C,"dose: 200.0 mg/kg/injection, schedule: Q04DX002 (ip), vehicle: saline with Tween-80",102 % of control
same,T/C,"dose: 400.0 mg/kg/injection, schedule: Q04DX002 (ip), vehicle: saline with Tween-80",102 % of control
C=CC(C)C1C(C)C(Cl)CC(Cl)C1OC(=O)c1ccccc1 (stereo unspecified),T/C,[1],100 % of control
same,T/C,[2],112 % of control
same,T/C,[3],94 % of control
same,T/C,[4],96 % of control
